Test results: PubChem BioAssay AID1259408 (Genetic Toxicology Data Bank (GENE-TOX), 2018)
Calls of active or inactive are those of the source. No rule for the calls is given here.

Test system: GENE-TOX genotoxicity assays, various organisms and cells
Experiment: GENE-TOX mutagenicity studies
Details: for call: Assay Type: In vivo carcinogenicity studies
Source text: GENE-TOX provides genetic toxicology (mutagenicity) test data from expert peer review of open scientific literature for more than 3,000 chemicals from the United States Environmental Protection Agency (EPA). GENE-TOX was established to select assay systems for evaluation, review data in the scientific literature, and recommend proper testing protocols and evaluation procedures for these systems.
GENE-TOX covers the years 1991 - 1998. It is no longer updated.
This is an archive assay for GENE-TOX mutagenicity studies.

[1] = Species/Cell Type: Nonhuman, Assay Code: CCG+, Evaluation Type: Evaluation A (Pre-1980)
[2] = Species/Cell Type: Salmonella typhimurium (one or more of the five standard strains: TA98, TA100, TA1535, TA1537, and TA1538), Assay Type: Histidine reverse gene mutation, Ames assay, Assay Code: SALT, Evaluation Type: Evaluation A (Pre-1980)
[3] = Species/Cell Type: Escherichia coli polA (W3119 vs P3478), Assay Type: Rec-assay, DNA effects (bacterial DNA repair), Assay Code: RE1T, Evaluation Type: Evaluation A (Pre-1980)
[4] = Species/Cell Type: Escherichia coli polA (W3119 vs P3478), Assay Type: Rec-assay, DNA effects (bacterial DNA repair), Assay Code: RE1+, Evaluation Type: Evaluation A (Pre-1980)
[5] = Species/Cell Type: Neurospora crassa, Assay Type: Reverse gene mutation, Assay Code: NER+, Evaluation Type: Evaluation A (Pre-1980)
[6] = Species/Cell Type: Salmonella typhimurium (one or more of the five standard strains: TA98, TA100, TA1535, TA1537, and TA1538), Assay Type: Histidine reverse gene mutation, Ames assay, Assay Code: SAL+, Evaluation Type: Evaluation A (Pre-1980)
[7] = Species/Cell Type: Syrian hamster embryo (SHE) cells, Assay Type: Cell transformation, clonal assay, Assay Code: CTC+, Evaluation Type: Evaluation A (Pre-1980)
[8] = Species/Cell Type: Bacillus subtilis (H17 vs M45), Assay Type: Rec-assay, spot test, DNA effects (bacterial DNA repair), Assay Code: REWT, Evaluation Type: Evaluation A (Pre-1980)

CCN(C)N=O
call [1]: active; positive
mutagenic call [2]: no conclusion

CCN(CC)Cc1cc(CC(=O)NN)ccc1OC
mutagenic call (Species/Cell Type: Saccharomyces cerevisiae, Assay Type: Reverse gene mutation, Assay Code: YERT, Evaluation Type: Evaluation A (Pre-1980)): no conclusion

CC(C)CI
mutagenic call [3]: no conclusion

O=C(Cn1ccnc1[N+](=O)[O-])NCc1ccccc1
mutagenic call (Species/Cell Type: Mammalian polychromatic erythrocytes, Assay Type: Micronucleus test, chromosome aberrations, Assay Code: MNT+, Evaluation Type: Evaluation B (Post-1980)): active; positive

CCC1CO1 (stereo not given)
mutagenic call (Species/Cell Type: Escherichia coli polA (W3110 vs P3478), Assay Type: Rec-assay, DNA effects (bacterial DNA repair), Assay Code: RE2+, Evaluation Type: Evaluation A (Pre-1980)): active; positive
mutagenic call [4]: active; positive
mutagenic call (Species/Cell Type: Fischer rat embryo (RLV/1706) cells, Assay Type: Cell transformation, viral enhanced, Assay Code: CTR+, Evaluation Type: Evaluation A (Pre-1980)): active; positive
mutagenic call (Species/Cell Type: Mouse (BALB/c-3T3) cells, Assay Type: Cell transformation, Assay Code: CTB-, Evaluation Type: Evaluation A (Pre-1980)): inactive; negative
mutagenic call [5]: active; positive
call (Species/Cell Type: Nonhuman, Assay Code: CCGT, Evaluation Type: Evaluation A (Pre-1980)): no conclusion
mutagenic call (Species/Cell Type: Saccharomyces cerevisiae, Assay Type: Mitotic recombination or gene conversion, Assay Code: YEH+, Evaluation Type: Evaluation A (Pre-1980)): active; positive
mutagenic call [6]: active; positive
mutagenic call [7]: active; positive

O=C(OCC1CCN2CCC(OC(=O)c3ccc([N+](=O)[O-])cc3)C12)c1ccc([N+](=O)[O-])cc1 (stereo not given)
mutagenic call (Species/Cell Type: Allium cepa, Assay Type: Chromosome aberrations, Assay Code: ALC-, Evaluation Type: Evaluation A (Pre-1980)): inactive; negative

CC[C@H](C)[C@@H]1NC(=O)CNC(=O)[C@@H]2Cc3c([nH]c4cc(O)ccc34)S(=O)C[C@H](NC(=O)CNC1=O)C(=O)N[C@@H](CC(N)=O)C(=O)N1C[C@H](O)C[C@H]1C(=O)N[C@@H]([C@@H](C)[C@@H](O)CO)C(=O)N2 (stereo not given in full)
mutagenic call (Species/Cell Type: Drosophila melanogaster, Assay Type: Aneuploidy, whole sex chromosome loss, chromosome aberrations, Assay Code: DACT, Evaluation Type: Evaluation A (Pre-1980)): no conclusion

CNO
mutagenic call [5]: active; positive

COc1cc2c(c3oc(=O)c4c(c13)CCC4=O)[C@@H]1CCO[C@@H]1O2
mutagenic call [8]: no conclusion
mutagenic call (Species/Cell Type: Chinese hamster lung (V79) cells, Assay Type: Forward gene mutation at the HPRT or ouabain locus, Assay Code: V79+, Evaluation Type: Evaluation A (Pre-1980)): active; positive
mutagenic call (Species/Cell Type: Escherichia coli polA (W3110 vs P3478), Assay Type: Rec-assay, DNA effects (bacterial DNA repair), Assay Code: RE2-, Evaluation Type: Evaluation A (Pre-1980)): inactive; negative
mutagenic call [3]: no conclusion
mutagenic call (Species/Cell Type: Human diploid fibroblasts, Assay Type: Unscheduled DNA synthesis (UDS) in vitro, DNA effects, Assay Code: UDH-*, Activation: With metabolic activation, Evaluation Type: Evaluation A (Pre-1980)): inactive; negative
call (Species/Cell Type: Nonhuman, Assay Code: CCG+L, Evaluation Type: Evaluation A (Pre-1980)): active; positive
mutagenic call (Species/Cell Type: Nonhuman, Assay Type: Sister-chromatid exchange (SCE) in vitro, Assay Code: SC2+D*, Activation: With metabolic activation, Dose Response: With dose response, Evaluation Type: Evaluation B (Post-1980)): active; positive
mutagenic call (Species/Cell Type: Rat primary hepatocytes, Assay Type: Unscheduled DNA synthesis (UDS) in vitro, DNA effects, Assay Code: UDP-, Evaluation Type: Evaluation A (Pre-1980)): inactive; negative
mutagenic call (Species/Cell Type: Saccharomyces cerevisiae, Assay Type: Mitotic recombination or gene conversion, Assay Code: YEH-, Evaluation Type: Evaluation A (Pre-1980)): inactive; negative
mutagenic call [2]: no conclusion
mutagenic call (Species/Cell Type: Salmonella typhimurium, Assay Type: Forward and reverse gene mutation, host-mediated assay, Assay Code: HMA-, Evaluation Type: Evaluation A (Pre-1980)): inactive; negative
mutagenic call [7]: active; positive

O=S(=O)(O)c1cc(S(=O)(=O)O)c2c(N=Nc3ccccc3)c(O)ccc2c1
mutagenic call [8]: no conclusion

COC(=O)CCN1CC1
mutagenic call (Species/Cell Type: Schizosaccharomyces pombe, Assay Type: Reverse gene mutation, Assay Code: YEZ+, Evaluation Type: Evaluation A (Pre-1980)): active; positive

Cc1nc(NO)cc2[nH]c3ccccc3c12
mutagenic call (Species/Cell Type: Human lymphocytes, Assay Type: Sister-chromatid exchange (SCE) in vitro, Assay Code: SCL+D, Dose Response: With dose response, Evaluation Type: Evaluation B (Post-1980)): active; positive
mutagenic call (Species/Cell Type: Human, Assay Type: Sister-chromatid exchange (SCE) in vitro, Assay Code: SC1+D, Dose Response: With dose response, Evaluation Type: Evaluation B (Post-1980)): active; positive

S=C1NCCN1
mutagenic call (Species/Cell Type: Escherichia coli WP2, Assay Type: Tryptophan reverse gene mutation, Assay Code: WP2-, Evaluation Type: Evaluation A (Pre-1980)): inactive; negative
mutagenic call (Species/Cell Type: Escherichia coli WP2 UVRA, Assay Type: Tryptophan reverse gene mutation, Assay Code: WPU-, Evaluation Type: Evaluation A (Pre-1980)): inactive; negative
mutagenic call (Species/Cell Type: Mammalian polychromatic erythrocytes, Assay Type: Micronucleus test, chromosome aberrations, Assay Code: MNTT, Evaluation Type: Evaluation A (Pre-1980)): no conclusion
mutagenic call (Species/Cell Type: Mouse, Sex: Male, Assay Type: Sperm morphology, Assay Code: SPI-, Evaluation Type: Evaluation A (Pre-1980)): inactive; negative
call [1]: active; positive
mutagenic call (Species/Cell Type: Nonhuman, Assay Type: Sister-chromatid exchange (SCE) in vitro, Assay Code: SC2T, Evaluation Type: Evaluation B (Post-1980)): no conclusion
mutagenic call (Species/Cell Type: Rodents, Sex: Male, Assay Type: Dominant lethal test, Assay Code: DLT+, Evaluation Type: Evaluation A (Pre-1980)): active; positive
mutagenic call [6]: active; positive
mutagenic call (Species/Cell Type: Salmonella typhimurium, Assay Type: Forward and reverse gene mutation, host-mediated assay, Assay Code: HMA+, Evaluation Type: Evaluation A (Pre-1980)): active; positive
mutagenic call (Species/Cell Type: Syrian hamster embryo (SA7/SHE) cells, Assay Type: Cell transformation, viral enhanced, Assay Code: CT7-, Evaluation Type: Evaluation A (Pre-1980)): inactive; negative
mutagenic call (Species/Cell Type: Tradescantia species, Assay Type: Gene mutation, Assay Code: TRM+D, Dose Response: With dose response, Evaluation Type: Evaluation A (Pre-1980)): active; positive

CC(C)CN(N=O)C(N)=O
mutagenic call (Species/Cell Type: Arabidopsis species, Assay Type: Gene mutation, Assay Code: ARM+D, Dose Response: With dose response, Evaluation Type: Evaluation A (Pre-1980)): active; positive

CCCC=O
mutagenic call (Species/Cell Type: Human lymphocytes, Assay Type: Sister-chromatid exchange (SCE) in vitro, Assay Code: SCL+, Evaluation Type: Evaluation B (Post-1980)): active; positive
mutagenic call (Species/Cell Type: Human, Assay Type: Sister-chromatid exchange (SCE) in vitro, Assay Code: SC1+, Evaluation Type: Evaluation B (Post-1980)): active; positive

Cc1c([N+](=O)[O-])cc[n+]([O-])c1C
mutagenic call [4]: active; positive

O=C1c2c(O)ccc(O)c2C(=O)c2c(NCCc3ccccc3)ccc(NCCc3ccccc3)c21
mutagenic call (Species/Cell Type: Salmonella typhimurium (one or more of the five standard strains: TA98, TA100, TA1535, TA1537, and TA1538), Assay Type: Histidine reverse gene mutation, Ames assay, Assay Code: SAL+/-*, Activation: With metabolic activation, Evaluation Type: Evaluation A (Pre-1980)): inactive; positive without activation, negative with activation

OC(CCl)OC(O)CCl (stereo not given)
mutagenic call [6]: active; positive

Nc1ccc2[nH]ncc2c1
mutagenic call (Species/Cell Type: Rat, Sex: Male, Assay Type: Sperm morphology, Assay Code: SPA+, Evaluation Type: Evaluation A (Pre-1980)): active; positive

CC(=O)OC[C@H]1O[C@@H](Oc2cccc3c2C(=O)c2c(O)cccc2C3=O)[C@H](OC(C)=O)[C@@H](OC(C)=O)[C@@H]1OC(C)=O
mutagenic call (Species/Cell Type: Salmonella typhimurium (one or more of the five standard strains: TA98, TA100, TA1535, TA1537, and TA1538), Assay Type: Histidine reverse gene mutation, Ames assay, Assay Code: SAL+*, Activation: With metabolic activation, Evaluation Type: Evaluation A (Pre-1980)): active; positive

Cc1cc(O)c2c(c1O)C(=O)c1c(O)ccc(O)c1C2=O
mutagenic call [6]: active; positive

O=C(CCl)CCl
mutagenic call (Species/Cell Type: Drosophila melanogaster, Assay Type: Sex-linked recessive lethal gene mutation, Assay Code: SRLT, Evaluation Type: Evaluation A (Pre-1980)): no conclusion
mutagenic call [6]: active; positive
